Laboratory results taken from US4470971A, “Renin inhibitory peptides having His^13” (Merck & Co., Inc., priority 1982, dated 1984).
Where a SMILES comes first, the peptide text is derived from it. [ ]: non-standard residue; d: D form. The star is where a group is joined. Sta = CC(C)C[C@H](N)[C@@H](O)CC(=O)O; Isovaleryl = CC(C)CC(=O)*; Isobutyryl = CC(C)C(=O)*

Molecular target: T1, Human renin (Homo sapiens, UniProt P00797)
T1 construct: Human plasma (lyophilized) was used as the source of human substrate and human renin; from tissue; host or cells: human plasma (lyophilized)
T1 sequence (P00797 67-406): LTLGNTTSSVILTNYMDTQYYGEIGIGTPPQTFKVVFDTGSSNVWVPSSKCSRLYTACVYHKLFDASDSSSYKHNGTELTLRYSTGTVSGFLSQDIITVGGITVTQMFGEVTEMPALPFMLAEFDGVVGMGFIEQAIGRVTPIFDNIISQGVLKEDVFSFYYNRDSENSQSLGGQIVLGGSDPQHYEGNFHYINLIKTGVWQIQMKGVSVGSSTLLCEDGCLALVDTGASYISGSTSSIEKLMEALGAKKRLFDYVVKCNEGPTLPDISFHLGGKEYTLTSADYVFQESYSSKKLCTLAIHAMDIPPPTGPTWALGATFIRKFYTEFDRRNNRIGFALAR
Test: human renin assay, radioimmunoassay of angiotensin I in human plasma (Haber et al.)
Assay type: biochemical
Settings: for IC50: lyophilized human plasma as source of human substrate and human renin, read-out: I50 (M) Human renin
Description: In order to illustrate the pig renin inhibition and human renin inhibition of the peptide inhibitor of Example 1, the peptide was evaluated in the pig renin inhibition assay described in Rich et al., J. Med. Chem. 23:27, 1980, and was further evaluated in the human renin assay based on the method of Haber et al., J. Clin. Endocrinol. 29:1349, 1969. The latter method employs a radioimmunoassay technique to measure the amount of angiotensin I product created by renin cleavage of its substrate. Human plasma (lyophilized) was used as the source of human substrate and human renin. I50 values were obtained by plotting data at several inhibitor concentrations.

IC50	inhibition at 1 µM (at 1.0 × 10^-6 M)	Structure (SMILES)
7.3e-08 M		CC(C)C[C@H](NC(=O)[C@H](Cc1c[nH]cn1)NC(=O)[C@H](Cc1ccccc1)NC(=O)[C@@H]1CCCN1C(=O)[C@H](Cc1c[nH]cn1)NC(=O)C(C)C)[C@@H](O)CC(=O)N[C@H](C(=O)N[C@@H](Cc1c[nH]cn1)C(=O)NCC(N)=O)C(C)C [N-Isobutyryl-L-histidyl-L-prolyl-L-phenylalanyl-L-histidyl-(3S,4S)-statyl-L-valyl-L-histidyl-L-glycyl amide] (Isobutyryl-HPFH[Sta]VHG-NH2)
	20%	CC(C)CC(=O)N[C@H](C(=O)N[C@H](C(=O)N[C@@H](CC(C)C)[C@@H](O)CC(=O)N[C@@H](C)C(=O)N[C@@H](CC(C)C)[C@@H](O)CC(=O)O)C(C)C)C(C)C [Pepstatin, iso-valeryl-Val--Val--Sta--Ala--Sta, reference compound] (Isovaleryl-VV[Sta]A[Sta]-OH)
7.3e-09 M		CC[C@H](C)[C@H](NC(=O)C[C@H](O)[C@H](CC(C)C)NC(=O)[C@H](Cc1c[nH]cn1)NC(=O)[C@H](Cc1ccccc1)NC(=O)[C@@H]1CCCN1C(=O)[C@H](Cc1c[nH]cn1)NC(=O)CC(C)C)C(=O)N[C@@H](Cc1c[nH]cn1)C(N)=O [iso-Valeryl-His-Pro-Phe-His-Sta-Ile-His-NH2] (Isovaleryl-HPFH[Sta]IH-NH2)
